Measurements taken from ChEMBL document CHEMBL1125886, “Interphenylene 7-oxabicyclo[2.2.1]heptane thromboxane A2 antagonists. Semicarbazone omega-chains” (J Med Chem, 1991).

How the values were obtained:
Homo sapiens [1] = species: Homo sapiens; assay: The compound was tested for inhibition of U-46,619(10 uM) induced platelet aggregation in human platelet rich plasma(PRP).; format: functional; settings: read-out: I50
Homo sapiens [2] = species: Homo sapiens; assay: The compound was tested for inhibition of arachidonic acid(800 uM) induced platelet aggregation in human platelet rich plasma.; format: functional; settings: read-out: I50
Thromboxane A2 receptor = target: T1, Thromboxane A2 receptor (Homo sapiens, UniProt P21731); assay: The compound was tested for inhibition of specific binding of [3H]-SQ 29,548 to thromboxane A2 receptor in human platelet membranes; format: cell membranes
T1 sequence (P21731 whole entry): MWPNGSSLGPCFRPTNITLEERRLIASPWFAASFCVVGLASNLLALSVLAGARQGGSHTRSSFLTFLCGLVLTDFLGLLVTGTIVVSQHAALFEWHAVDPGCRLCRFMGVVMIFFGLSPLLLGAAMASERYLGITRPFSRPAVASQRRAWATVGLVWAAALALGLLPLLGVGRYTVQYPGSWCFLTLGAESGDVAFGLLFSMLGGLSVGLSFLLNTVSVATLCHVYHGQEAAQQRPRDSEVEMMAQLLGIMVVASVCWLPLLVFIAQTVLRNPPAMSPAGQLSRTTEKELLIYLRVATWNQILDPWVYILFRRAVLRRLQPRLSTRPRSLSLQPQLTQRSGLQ

Mus musculus [3] = assay: The compound was tested in vivo for duration of action after 0.2 mg/kg peroral administration to protect from U-46,619-induced(2.0 mg/kg, iv) death in mice; format: ADME, organism-based; design: dose 0.2 mg/kg, route oral; settings: po
Mus musculus [4] = assay: The compound was tested in vivo for duration of action after 10 mg/kg peroral administration to protect from U-46,619-induced(2.0 mg/kg, iv) death in mice; format: ADME, organism-based; design: dose 10 mg/kg, route oral; settings: po

Row | SMILES | IC50 (Homo sapiens [1]) | IC50 (Homo sapiens [2]) | Kd (Thromboxane A2 receptor) | T50 (Mus musculus [3]) | T50 (Mus musculus [4])
1 | O=C(O)COc1cccc(CC2C3CCC(O3)C2/C=N/NC(=O)Nc2ccccc2)c1 (stereo not drawn) | 25000 nM | 7200 nM | 1200 nM |  | 
2 | O=C(O)Cc1ccc(CCC2C3CCC(O3)C2/C=N/NC(=O)Nc2ccccc2)cc1 (stereo not drawn) |  | 688000 nM |  |  | 
3 | O=C(O)COc1ccccc1CC1C2CCC(O2)C1/C=N/NC(=O)Nc1ccccc1 (stereo not drawn) | 46 nM | 15 nM | 6 nM | 3.6 h | 
4 | O=C(O)CCC/C=C\CC1C2CCC(O2)C1/C=N/NC(=O)Nc1ccccc1 (stereo not drawn) | 710 nM | 230 nM | 39.4 nM |  | 
5 | O=C(O)Cc1cccc(CCC2C3CCC(O3)C2/C=N/NC(=O)Nc2ccccc2)c1 (stereo not drawn) | 133000 nM | 30000 nM | 1070 nM |  | 
6 | O=C(O)CCCc1ccccc1CC1C2CCC(O2)C1/C=N/NC(=O)Nc1ccccc1 (stereo not drawn) | 72 nM | 12 nM | 21.1 nM | 8.7 h | 
7 | O=C(O)Cc1cccc(CC2C3CCC(O3)C2/C=N/NC(=O)Nc2ccccc2)c1 (stereo not drawn) | 4600 nM | 370 nM | 171 nM | 1.7 h | 8.3 h
8 | O=C(O)CCc1ccccc1CC1C2CCC(O2)C1/C=N/NC(=O)Nc1ccccc1 (stereo not drawn) | 12 nM | 3 nM | 1 nM | 16 h | 
9 | O=C(O)Cc1ccc(CC2C3CCC(O3)C2/C=N/NC(=O)Nc2ccccc2)cc1 (stereo not drawn) |  | 310000 nM |  |  | 
